Measurements: BindingDB's records for doi:10.1021/jm020871e (University of Bonn, 2002)

Target: Muscarinic acetylcholine receptor M2 (Sus scrofa) (UniProt P06199)
Test: Binding of [3H]N-methylscopolamine at porcine heart Muscarinic acetylcholine receptor M2 that inhibits the dissociation of [3H]NMS half maximally (pEC50diss) was reported

Muscarinic acetylcholine receptor M2 (Sus scrofa), sequence (P06199 whole entry, looked up): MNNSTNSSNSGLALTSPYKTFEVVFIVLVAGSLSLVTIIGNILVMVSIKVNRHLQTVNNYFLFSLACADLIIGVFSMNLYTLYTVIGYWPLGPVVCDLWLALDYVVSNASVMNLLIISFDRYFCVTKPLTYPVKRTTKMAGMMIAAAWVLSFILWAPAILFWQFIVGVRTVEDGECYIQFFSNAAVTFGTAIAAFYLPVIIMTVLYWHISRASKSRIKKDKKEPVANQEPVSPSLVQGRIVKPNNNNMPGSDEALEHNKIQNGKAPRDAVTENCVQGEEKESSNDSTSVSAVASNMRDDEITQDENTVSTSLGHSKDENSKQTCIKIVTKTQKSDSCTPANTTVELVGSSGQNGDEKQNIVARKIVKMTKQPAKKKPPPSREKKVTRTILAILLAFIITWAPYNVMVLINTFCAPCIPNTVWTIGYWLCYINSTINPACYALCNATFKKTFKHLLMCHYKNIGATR

EC50	SMILES
178 nM	CC(C)(CN1C(=O)c2ccccc2C1=O)C[N+](C)(C)CCCCCC[N+](C)(C)CC(C)(C)CN1C(=O)c2ccccc2C1=O
170 nM	Cc1ccc2c(c1)C(=O)N(CCC[N+](C)(C)CCCCCC[N+](C)(C)CCCN1C(=O)c3ccc(C)cc3C1=O)C2=O
71 nM	Cc1ccc2c(c1)C(=O)N(CCC[N+](C)(C)CCCCCC[N+](C)(C)CC(C)(C)CN1C(=O)c3ccccc3C1=O)C2=O
36 nM	Cc1ccc2c(c1)C(=O)N(CCC[N+](C)(C)CCCCCC[N+](C)(C)CC(C)(C)CN1C(=O)c3ccc(C)cc3C1=O)C2=O
324 nM	Cc1ccc2c(c1)C(=O)N(CCC[N+](C)(C)CCCCCC[N+](C)(C)CCCN1C(=O)c3ccccc3C1=O)C2=O
135 nM	CC(C)(CN1C(=O)c2ccccc2C1=O)C[N+](C)(C)CCCCCC[N+](C)(C)CCCN1C(=O)c2ccccc2C1=O
47 nM	Cc1ccc2c(c1)C(=O)N(CC(C)(C)C[N+](C)(C)CCCCCC[N+](C)(C)CC(C)(C)CN1C(=O)c3ccc(C)cc3C1=O)C2=O
55 nM	Cc1ccc2c(c1)C(=O)N(CC(C)(C)C[N+](C)(C)CCCCCC[N+](C)(C)CCCN1C(=O)c3ccccc3C1=O)C2=O
